Results from patent EP2067861A1, “Animals of the rattus genus wherein msh6 expression is functionally decreased and methods for the generation of specific mutants therefrom” (Koninklijke Nederlandse Akademie van Wetenschappen, priority 2007, dated 2009).
Several values for one entry are separate records, joined by “and”; a condition that tells them apart may be missing. Equal values may be shown once.

Legend:
[1] = system: msh6^-/- males; test: ENU dose-response experiment: fertility of treated founder males; type: in vivo, rat
Description: All experiments were approved by the Animal Care Committee of the Royal Dutch Academy of Science according to the Dutch legal ethical guidelines. Experiments were designed to minimize the number of required animals and their suffering. Male MSH6 knockout rats (Msh6^1Hubr) of 12 weeks of age were given three weekly intraperitoneal injections of 25, 30 and 35 mg/kg bodyweight ENU. Preparation of ENU (Isopac; Sigma) was done as decribed (for detailed description, see (Smits et al. (2006) Pharmacogenet Genomics 16, 159-69) After the treatment the injected males were monitored for fertility by breeding with one or two females. Pups from these early matings were counted, but not analyzed. Ten weeks after the last injection, fertile males of the highest-dosed fertile group were kept on a weekly breeding scheme with two females to produce F1 progeny for mutational analysis. Animals were housed under standard conditions in groups of two to three per cage per gender under controlled experimental conditions (12-h light/dark cycle, 21±1°C, 60% relative humidity, food and water ad libitum).
The efficiency of ENU is dependent of the dose, reflected by a higher mutagenicity after three weekly administrations of low doses of the mutagen compared to a single high-dose injection (Justice et al. (2000) Mamm Genome 11, 484-8). Furthermore it has been shown that higher ENU concentrations increase the mutation frequency (Smits et al. ([…]) Pharmacogenet Genomics 16, 159-69; Smits and Cuppen (2006) Trends Genet. 22, 232-40). To determine the optimal ENU concentration we performed an ENU dose-response experiment and determined the fertility of the founders. At 12 weeks of age msh6^-/- males were treated with 3 weekly doses of different concentrations of the mutagen. Fertility was determined after a full cycle of spermatogenesis (± 10 weeks) by breeding and/or histological analysis of the testes. At concentrations of 35, 30 and 25 mg/kg, respectively 1/8, 5/8 and 4/6 males were fertile (Table 5). Compared to earlier studies, where at 40 and 35 mg/kg ENU respectively 6/10 and 10/10 rats are fertile (Smits and Cuppen (2006) Trends Genet. 22, 232-40), this is a considerable decrease. It is known that MSH6 deficiency reduces lifespan in both rats (van Boxtel et al. (2007) submitted) and mice (Edelmann (1997) Cell 91, 467-77) as a result of tumor development. MSH6 deficiency increased ENU sensitivity not only in fertility, but also in survival. Whereas untreated msh6^-/- rats show a median survival of 14 months, this is reduced in the ENU treated males to an average mean of 37 ± 3 weeks (∼ 8 months) and no male was alive after 50 weeks of age (Figure 5). This decrease in lifespan was due to the development of tumors, mainly lymphomas (data not shown). […]

[2] = system: msh6^-/- male rats; test: Survival of ENU treated msh6^-/- male rats; type: in vivo, rat; conditions: for # Surviving founders: 3 x 30 mg/kg bodyweight ENU
Description: • Figure 1. Characteristics of the msh6^-/- rat. (A) Genomic organization of the msh6 gene in rats. The arrow marks the position of the ENU-induced mutation that results in a premature stop codon. The sequence trace indicates the T to A […] in a heterozygous rat. (B) Western blot (WB) of testes and cultured rat embryonic fibroblast (CREF) lysates stained with antibodies against human MSH6 (160 kDa). Lysate of human embryonic kidney (HEK) cells was loaded as a positive control. MSH6 protein is completely absent in msh6^-/- testes and CREF. Coomassie brilliant blue staining (CBB) was used as a control for protein loading. • Figure 2. Microsatellite instability in the germ line. (A) A mononucleotide repeat of 20 repetitive subunits (G)20 was analyzed in a cross between a msh6^-/- father and a wild type mother and their msh6^+/- offspring. The red line indicates the size of the most prominent amplification product in both parents. In the DNA sample of the offspring one of the alleles has lost one repetitive subunit. (B) Fragment analysis of a dinucleotide repeat (CA)36 that is polymorphic between the founder animals. […] The orange peaks represent the size marker that was loaded to determine the size of the PCR product. • Figure 3. Survival of the msh6^-/- rats. The time the rats became moribund is recorded. Red line, msh6^-/- rats (n=17); black line, control group (n=100, Source Harlan). • Figure 4. Tumors observed in the msh6^-/- rat. (A) Section of a mediastinal lymphoblastic lymphoma of a msh6^-/- male rat stained with HE. (B) A higher magnification of the lymphoblastic lymphoma. (C) Section of a leiomyosarcoma of the endometrium stained with HE. (D) Section of an endometrial carcinoma stained with HE. (E) A higher magnification of the endometrial carcinoma. (F) A section of a squamous cell carcinoma in the stomach of a msh6^-/- female rat stained with HE. (G) Section of a fibroadenoma of a msh6^-/- male rat stained with HE. (H) Section of a liver with lymphoblastic lymphoma leukemia stained with HE. (I) Section of a testicle containing a Leydig cell tumor stained with HE. • Figure 5. Survival of msh6^-/- male rats after treatment of different concentrations of ENU compared to untreated msh6^-/- male rats. Time points of the last ENU injection and the beginning of the mutation discovery screen are indicated. • Figure 6. ENU-induced target-selected knockout protocol. (A) Msh6^-/- males were mutagenized and crossed with wild-type Wistar females. At two weeks of age tissue samples from the F1 progeny were taken and DNA was isolated. (B) For every DNA samples 768 pre-selected amplicons were PCR amplified and dideoxy sequenced. (C) Sequence traces for the same amplicon of the different animals was aligned, processed with PolyPhred (Nickerson et al, (1997) Nucleic Acids Res 25, 2745-51) and analyzed using in house developed software. (D) ENU-induced de novo mutations were verified by independent PCR amplification and sequencing and pups carrying interesting mutations were weaned. The whole procedure from taking tissue samples to weaning interesting mutants takes 1 week, indicated in the centre of the figure. • Figure 7. ENU-induced mutation spectrum in MSH6 deficient background compared to MMR proficient animals. […] (B) The change of introducing a premature stop codon with ENU-induced MSH6 proficient and deficient mutation spectra. For the calculations the sequences of the 768 representative exon-containing amplicons were used (* indicates significance, p < 0.05).
All experiments were approved by the Animal Care Committee of the Royal Dutch Academy of Science according to the Dutch legal ethical guidelines. Experiments were designed to minimize the number of required animals and their suffering. Male MSH6 knockout rats (Msh6^1Hubr) of 12 weeks of age were given three weekly intraperitoneal injections of 25, 30 and 35 mg/kg bodyweight ENU. […]

CCN(N=O)C(N)=O [ENU, N-ethyl-N-nitrosourea]
# Fertile males ([1]; MSH6^-/- 3 x 25 mg of ENU per kg bodyweight (three weekly injections), 6 males injected, testes histology and/or at least one litter 10 weeks after last injection): 4/6 and 4
# Fertile males ([1]; MSH6^-/- 3 x 30 mg of ENU per kg bodyweight (three weekly injections), 8 males injected): 5/8 and 5
# Fertile males ([1]; MSH6^-/- 3 x 35 mg of ENU per kg bodyweight (three weekly injections), 8 males injected): 1/8 and 1
# Fertile males ([1]; MSH6^-/- Total of the three dose groups, 24 males injected as printed): 10
# Surviving founders ([2]; 17 - 19 weeks after last injection): 5/5
# Surviving founders ([2]; 20 - 22 weeks after last injection): 5/5
# Surviving founders ([2]; 23 - 25 weeks after last injection): 5/5
# Surviving founders ([2]; 26 - 29 weeks after last injection): 3/5
age after which no male was alive ([2]; ENU treated msh6^-/- males): ≤ 50 weeks
average mean of survival ([2]; ENU treated msh6^-/- males (untreated msh6^-/- rats: median survival 14 months)): 37 ± 3 weeks
average mean of survival ([2]; ENU treated msh6^-/- males, same value restated in months): ~8 months
# Surviving founders ([2]; fertile msh6^-/- males, 14 - 16 weeks after last injection): 5/5
